The source of these data is US20140005163A1 (NOVARTIS AG, priority 2010, published 2014).

SMILES strings stand for the structures. pIC50: −log10 of the molar value.

In one assay the target is T1, PI3K beta (Homo sapiens, UniProt P42338).
T1 construct: for the full-length p110-b subunit are generated and fused by overlapping PCR; p85(iSH2) fusion partner (see partner chain) (N); His tag (C); made in house; host or cells: baculovirus; Tn5 (Trichoplusia ni) or TiniPro insect cells
As to the kind of experiment: PI3K beta kinase assay (Kinase-Glo luminescence). Type of assay: biochemical. An outline of the steps:
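Residual ATP after a 60 min room-temperature reaction is quantified by Kinase-Glo luminescence. Enzyme: 25 nM BV-949 (p85 iSH2–linker–full-length p110β); substrates 1 μM ATP, 10 μg/mL PI; buffer Tris pH 7.5, MgCl2, NaCl, CHAPS, DTT. Eight concentrations per compound, four-parameter logistic IC50.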
Background: In Kinase-Glo more light means more ATP remaining.

In assay [1] the test system is PKB Ser473 phosphorylation in Rat1-myr-HA-p110 delta cells. As to the kind of experiment: Reverse protein array assay, PKB Ser473 phosphorylation in Rat1-myr-p110 delta cells. Type of assay: cell-based. As to conditions: read-out: p-PKB IC50. The procedure, abridged: (§1)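 Rat1 cells expressing myristoylated HA-tagged p110 alpha, beta or delta were plated for at least 20 h, then exposed to 8-step serial compound dilutions (0.2% DMSO final) for 30 min at 37 °C. Lysates were spotted at four dilutions on protein microarrays, and relative fluorescence intensity of phospho-Ser473 PKB was calculated.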

Assay [2] relates to PKB Ser473 phosphorylation in Rat1-myr-HA-p110 alpha cells. In words: Reverse protein array assay, PKB Ser473 phosphorylation in Rat1-myr-p110 alpha cells. As to conditions: 0.5 h, pAkt Ser473, 30 minutes compound incubation, read-out: p-PKB IC50. Type of assay: cell-based. The procedure, abridged:
as §1

For assay [3], the system named is S6 Ribosomal Protein phosphorylation Ser235/236 in TSC1 null mouse embryo fibroblast (MEF) cells. As to the kind of experiment: Reverse protein array assay, S6 Ribosomal Protein phosphorylation Ser235/236 in TSC1 null MEF cells. Type of assay: cell-based. As to conditions: 1 h, pS6 ribosomal protein Ser235/236, 60 minutes incubation, read-out: p-S6 IC50. An outline of the steps:
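TSC1−/− MEFs, seeded and held ≥20 h at 37 °C/5% CO2, were exposed to 8-step serial compound dilutions (0.02% DMSO final; DMSO vehicle control) for 60 min at 37 °C. Cells were then lysed on ice for 10 min and lysates spotted onto reverse protein array chips.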

T1 sequence (P42338 with tags, fused parts or gaps limits assumed): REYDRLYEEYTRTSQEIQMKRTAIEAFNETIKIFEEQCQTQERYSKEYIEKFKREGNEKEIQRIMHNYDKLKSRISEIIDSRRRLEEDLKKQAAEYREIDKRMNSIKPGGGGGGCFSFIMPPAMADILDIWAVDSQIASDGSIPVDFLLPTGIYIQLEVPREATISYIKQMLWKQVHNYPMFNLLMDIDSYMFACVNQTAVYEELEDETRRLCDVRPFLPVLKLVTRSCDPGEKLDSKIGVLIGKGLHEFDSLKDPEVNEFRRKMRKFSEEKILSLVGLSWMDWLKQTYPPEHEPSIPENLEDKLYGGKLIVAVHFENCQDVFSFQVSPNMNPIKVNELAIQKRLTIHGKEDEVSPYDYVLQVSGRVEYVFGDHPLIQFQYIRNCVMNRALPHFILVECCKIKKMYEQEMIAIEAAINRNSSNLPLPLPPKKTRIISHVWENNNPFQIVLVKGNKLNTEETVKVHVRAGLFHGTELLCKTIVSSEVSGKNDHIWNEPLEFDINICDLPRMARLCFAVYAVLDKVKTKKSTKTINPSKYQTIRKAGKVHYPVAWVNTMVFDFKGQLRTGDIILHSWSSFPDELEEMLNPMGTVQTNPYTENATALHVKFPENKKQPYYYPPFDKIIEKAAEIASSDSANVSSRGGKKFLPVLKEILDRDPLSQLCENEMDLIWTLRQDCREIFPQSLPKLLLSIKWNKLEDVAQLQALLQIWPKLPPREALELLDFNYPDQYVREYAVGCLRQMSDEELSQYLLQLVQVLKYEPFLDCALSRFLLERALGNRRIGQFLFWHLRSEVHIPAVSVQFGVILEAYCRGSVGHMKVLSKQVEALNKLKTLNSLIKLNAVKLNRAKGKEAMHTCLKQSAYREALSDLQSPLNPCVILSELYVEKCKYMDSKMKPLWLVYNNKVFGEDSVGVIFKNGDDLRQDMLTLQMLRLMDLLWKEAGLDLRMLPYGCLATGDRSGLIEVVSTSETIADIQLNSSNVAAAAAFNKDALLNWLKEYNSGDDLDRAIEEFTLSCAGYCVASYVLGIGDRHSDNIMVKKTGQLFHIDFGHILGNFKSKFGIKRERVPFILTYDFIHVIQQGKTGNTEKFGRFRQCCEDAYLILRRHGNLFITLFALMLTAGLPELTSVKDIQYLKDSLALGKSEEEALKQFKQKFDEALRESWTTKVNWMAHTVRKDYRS

Consider `COc1ccc(-c2ccc3ncc4c(c3c2)n(-c2cc(C)nn2C)c(=O)n4C)cc1OC` [Example 1.4, 8-(3,4-Dimethoxy-phenyl)-1-(2,5-dimethyl-2H-pyrazol-3-yl)-3-methyl-1,3-dihydro-imidazo[4,5-c]quinolin-2-one], for which the figures for the pIC50 (at PI3K beta; in assay [1]; in assay [2]) were 6.42, 6.88 and 7.66, respectively.
Take `COc1ccc(-c2ccc3ncc4c(c3c2)n(-c2cn(C(C)C)nc2C)c(=O)n4C)cc1OC` [Example 1.5, 8-(3,4-Dimethoxy-phenyl)-1-(1-isopropyl-3-methyl-1H-pyrazol-4-yl)-3-methyl-1,3-dihydro-imidazo[4,5-c]quinolin-2-one]: the pIC50 (usually the negative decadic logarithm of the IC50, by convention in mol/L) was 7.00 at PI3K beta, greater than 8.30 in assay [3], 7.30 in assay [1] and 7.80 in assay [2].
In the same order, the values of `CCn1cc(-n2c(=O)n(C)c3cnc4ccc(-c5ccc(OC)c(OC)c5)cc4c32)c(C)n1` [Example 1.6, 8-(3,4-Dimethoxy-phenyl)-1-(1-ethyl-3-methyl-1H-pyrazol-4-yl)-3-methyl-1,3-dihydro-imidazo[4,5-c]quinolin-2-one] are 7.37, greater than 8.30, 7.52 and 8.00.
The like results for `COc1ccc(-c2ccc3ncc4c(c3c2)n(-c2cn(C)nc2C)c(=O)n4C)cn1` [Example 2.5, 1-(1,3-Dimethyl-1H-pyrazol-4-yl)-8-(6-methoxy-pyridin-3-yl)-3-methyl-1,3-dihydro-imidazo[4,5-c]quinolin-2-one] were, in that order, 7.07, 8.00, 7.44 and 7.74.
As for `CCn1cc(-n2c(=O)n(C)c3cnc4ccc(-c5ccc(OC)nc5)cc4c32)c(C)n1` [Example 2.7, 1-(1-Ethyl-3-methyl-1H-pyrazol-4-yl)-8-(6-methoxy-pyridin-3-yl)-3-methyl-1,3-dihydro-imidazo[4,5-c]quinolin-2-one], the pIC50 at PI3K beta is 7.04; in assay [3], 8.22; in assay [1] it was 7.21; in assay [2] it was 7.55.
In the same order, the values of `CCOc1ccc(-c2ccc3ncc4c(c3c2)n(-c2c(C)nn(C)c2C)c(=O)n4C)cn1` [Example 3.3, 8-(6-Ethoxy-pyridin-3-yl)-3-methyl-1-(1,3,5-trimethyl-1H-pyrazol-4-yl)-1,3-dihydro-imidazo[4,5-c]quinolin-2-one] are 6.40, 6.59, 6.03 and 7.30.
In the same order, the values of `CCOc1ccc(-c2ccc3ncc4c(c3c2)n(-c2cn(C(C)C)nc2C)c(=O)n4C)cn1` [Example 3.7, 8-(6-Ethoxy-pyridin-3-yl)-1-(1-isopropyl-3-methyl-1H-pyrazol-4-yl)-3-methyl-1,3-dihydro-imidazo[4,5-c]quinolin-2-one] are 6.27, 7.52, 6.73 and 7.37.
Regarding `CCOc1ccc(-c2ccc3ncc4c(c3c2)n(-c2cn(CC(=O)N(C)C)nc2C)c(=O)n4C)cn1` [Example 3.9, 2-{4-[8-(6-Ethoxy-pyridin-3-yl)-3-methyl-2-oxo-2,3-dihydro-imidazo[4,5-c]quinolin-1-yl]-3-methyl-pyrazol-1-yl}-N,N-dimethyl-acetamide], the pIC50 in assay [3] was 8.30; in assay [1] it was 7.30; in assay [2], 8.00.
Take `Cc1cc(-n2c(=O)n(C)c3cnc4ccc(-c5ccc(N(C)C)nc5)cc4c32)n(C)n1` [Example 4.6, 8-(6-Dimethylamino-pyridin-3-yl)-1-(2,5-dimethyl-2H-pyrazol-3-yl)-3-methyl-1,3-dihydro-imidazo[4,5-c]quinolin-2-one]: the pIC50 was 6.47 at PI3K beta, 6.69 in assay [1] and 7.52 in assay [2].
`CNC(=O)c1ccc(-c2ccc3ncc4c(c3c2)n(-c2c(C)nn(C)c2C)c(=O)n4C)cn1` [Example 15.2, 5-[3-Methyl-2-oxo-1-(1,3,5-trimethyl-1H-pyrazo1-4-yl)-2,3-dihydro-1H-imidazo[4,5-c]quinolin-8-yl]-pyridine-2-carboxylic acid methylamide]: the pIC50 at PI3K beta is 6.01; in assay [2] it was 6.45.
As to `Cc1nn(C)c(C)c1-n1c(=O)n(C)c2cnc3ccc(-c4ccc(CO)nc4)cc3c21` [Example 16.4, 8-(6-Hydroxymethyl-pyridin-3-yl)-3-methyl-1-(1,3,5-trimethyl-1H-pyrazol-4-yl)-1,3-dihydro-imidazo[4,5-c]quinolin-2-one], the pIC50 is 6.29 at PI3K beta, 5.82 in assay [1] and 6.63 in assay [2].
Regarding `Cn1nccc1-n1c(=O)n(C)c2cnc3ccc(-c4ccc(NCCO)nc4)cc3c21` [Example 21.1, 8-[6-(2-Hydroxy-ethylamino)-pyridin-3-yl]-3-methyl-1-(2-methyl-2H-pyrazol-3-yl)-1,3-dihydro-imidazo[4,5-c]quinolin-2-one], the pIC50 at PI3K beta is 6.02; in assay [1], 6.04; in assay [2] it was 6.72.
Turning to `Cc1nn(C)cc1-n1c(=O)n(C)c2cnc3ccc(-c4ccc(-n5cccn5)cc4)cc3c21` [Example 51.1, 1-(1,3-Dimethyl-1H-pyrazol-4-yl)-3-methyl-8-(4-pyrazol-1-yl-phenyl)-1,3-dihydro-imidazo[4,5-c]quinolin-2-one], the pIC50 was 8.30 in assay [3], 7.54 in assay [1] and greater than 8.30 in assay [2].
For the molecule `CCOc1ncc(-c2ccc3ncc4c(c3c2)n(-c2cn(C)nc2C)c(=O)n4C)cc1NC(C)=O` [Example 65, N-{5-[1-(1,3-Dimethyl-1H-pyrazol-4-yl)-3-methyl-2-oxo-2,3-dihydro-1H-imidazo[4,5-c]quinolin-8-yl]-2-ethoxy-pyridin-3-yl}-acetamide], the pIC50 in assay [3] was 7.18; in assay [1], 6.99; in assay [2] it was 7.33.
For `Cc1nn(C)cc1-n1c(=O)n(C)c2cnc3ccc(-c4ccnc(OC(C)C)c4)cc3c21` [Example 92, 1-(1,3-Dimethyl-1H-pyrazol-4-yl)-8-(2-isopropoxy-pyridin-4-yl)-3-methyl-1,3-dihydro-imidazo[4,5-c]quinolin-2-one], the pIC50 at PI3K beta is 6.61; in assay [3], 7.12; in assay [2] it was 6.61.
Turning to `COCc1ccc(-c2ccc3ncc4c(c3c2)n(-c2cn(C(C)C)nc2C)c(=O)n4C)cn1` [Example 105, 1-(1-Isopropyl-3-methyl-1H-pyrazol-4-yl)-8-(6-methoxymethyl-pyridin-3-yl)-3-methyl-1,3-dihydro-imidazo[4,5-c]quinolin-2-one], the pIC50 is 6.79 on PI3K beta, 6.79 in assay [1] and 7.11 in assay [2].
In the case of `Cc1nn(C)cc1-n1c(=O)n(C)c2cnc3ccc(-c4ccc(OCCCO)nc4)cc3c21` [Example 108, 1-(1,3-Dimethyl-1H-pyrazol-4-yl)-8-[6-(3-hydroxy-propoxy)-pyridin-3-yl]-3-methyl-1,3-dihydro-imidazo[4,5-c]quinolin-2-one], the pIC50 in assay [3] was 7.77; in assay [1] it was 6.40; in assay [2], 6.87.
On to `Cc1nn(C)c(C)c1-n1c(=O)n(C)c2cnc3ccc(-c4cnc(N)c(CO)c4)cc3c21` [Example 169.2, 8-(6-Amino-5-hydroxymethyl-pyridin-3-yl)-3-methyl-1-(1,3,5-trimethyl-1H-pyrazol-4-yl)-1,3-dihydro-imidazo[4,5-c]quinolin-2-one], for which the pIC50 is 6.78 at PI3K beta, 6.06 in assay [1] and 6.34 in assay [2].
For the molecule `CCOCc1ncc(-c2ccc3ncc4c(c3c2)n(-c2cn(C)nc2C)c(=O)n4C)cc1OC` [Example 196.2, 1-(1,3-Dimethyl-1H-pyrazol-4-yl)-8-(6-ethoxymethyl-5-methoxy-pyridin-3-yl)-3-methyl-1,3-dihydro-imidazo[4,5-c]quinolin-2-one], the pIC50 in assay [3] is 6.90; in assay [1] it was 6.47; in assay [2] it was 6.89.
In the same order, the values of `CO[C@@H]1CCN(c2ccc(-c3ccc4ncc5c(c4c3)n(-c3cn(C)nc3C)c(=O)n5C)cn2)C1` [Example 213.1, 1-(1,3-Dimethyl-1H-pyrazol-4-yl)-8-[6-((R)-3-methoxy-pyrrolidin-1-yl)-pyridin-3-yl]-3-methyl-1,3-dihydro-imidazo[4,5-c]quinolin-2-one] are 7.31, 6.20 and 6.90.
In the same order, the values of `Cc1nn(CC(=O)N2CCC2)cc1-n1c(=O)n(C)c2cnc3ccc(-c4cnc(N5CCCC5)nc4)cc3c21` [Example 247.2, 1-[1-(2-Azetidin-1-yl-2-oxo-ethyl)-3-methyl-1H-pyrazol-4-yl]-3-methyl-8-(2-pyrrolidin-1-yl-pyrimidin-5-yl)-1,3-dihydro-imidazo[4,5-c]quinolin-2-one] are 8.05, 6.54 and 7.35.
